Measurements taken from US20110105565A1, “WATER SOLUBLE SMALL MOLECULE INHIBITORS OF THE CYSTIC FIBROSIS TRANSMEMBRANE CONDUCTANCE REGULATOR” (THE REGENTS OF THE UNIVERSITY OF CALIFORNIA, priority 2008, published 2011).
pIC50: −log10 of the molar value. Like-named read-outs stand apart in the source and are kept apart here.

Molecular target: human wildtype CFTR (Homo sapiens, UniProt P13569)
Test: Fluorescence cell-based assay of CFTR inhibition (YFP iodide influx, FRT cells)
Design: expressed in transfected cells; host or cells: Fisher rat thyroid (FRT) cells
Conditions: for CFTR inhibitory activity (in words): structure-activity discussion
[1] = Table 1, upper part, CFTR inhibitory activity, given as ranges, read-out: IC50
[2] = Table 2 summary table, given as ranges, read-out: IC50
[3] = Table 1, lower parts, given as ranges, read-out: IC50
[4] = Tables 1 and 2, read-out: IC50 (CFTR inhibition)

Chain of human wildtype CFTR (P13569 whole entry): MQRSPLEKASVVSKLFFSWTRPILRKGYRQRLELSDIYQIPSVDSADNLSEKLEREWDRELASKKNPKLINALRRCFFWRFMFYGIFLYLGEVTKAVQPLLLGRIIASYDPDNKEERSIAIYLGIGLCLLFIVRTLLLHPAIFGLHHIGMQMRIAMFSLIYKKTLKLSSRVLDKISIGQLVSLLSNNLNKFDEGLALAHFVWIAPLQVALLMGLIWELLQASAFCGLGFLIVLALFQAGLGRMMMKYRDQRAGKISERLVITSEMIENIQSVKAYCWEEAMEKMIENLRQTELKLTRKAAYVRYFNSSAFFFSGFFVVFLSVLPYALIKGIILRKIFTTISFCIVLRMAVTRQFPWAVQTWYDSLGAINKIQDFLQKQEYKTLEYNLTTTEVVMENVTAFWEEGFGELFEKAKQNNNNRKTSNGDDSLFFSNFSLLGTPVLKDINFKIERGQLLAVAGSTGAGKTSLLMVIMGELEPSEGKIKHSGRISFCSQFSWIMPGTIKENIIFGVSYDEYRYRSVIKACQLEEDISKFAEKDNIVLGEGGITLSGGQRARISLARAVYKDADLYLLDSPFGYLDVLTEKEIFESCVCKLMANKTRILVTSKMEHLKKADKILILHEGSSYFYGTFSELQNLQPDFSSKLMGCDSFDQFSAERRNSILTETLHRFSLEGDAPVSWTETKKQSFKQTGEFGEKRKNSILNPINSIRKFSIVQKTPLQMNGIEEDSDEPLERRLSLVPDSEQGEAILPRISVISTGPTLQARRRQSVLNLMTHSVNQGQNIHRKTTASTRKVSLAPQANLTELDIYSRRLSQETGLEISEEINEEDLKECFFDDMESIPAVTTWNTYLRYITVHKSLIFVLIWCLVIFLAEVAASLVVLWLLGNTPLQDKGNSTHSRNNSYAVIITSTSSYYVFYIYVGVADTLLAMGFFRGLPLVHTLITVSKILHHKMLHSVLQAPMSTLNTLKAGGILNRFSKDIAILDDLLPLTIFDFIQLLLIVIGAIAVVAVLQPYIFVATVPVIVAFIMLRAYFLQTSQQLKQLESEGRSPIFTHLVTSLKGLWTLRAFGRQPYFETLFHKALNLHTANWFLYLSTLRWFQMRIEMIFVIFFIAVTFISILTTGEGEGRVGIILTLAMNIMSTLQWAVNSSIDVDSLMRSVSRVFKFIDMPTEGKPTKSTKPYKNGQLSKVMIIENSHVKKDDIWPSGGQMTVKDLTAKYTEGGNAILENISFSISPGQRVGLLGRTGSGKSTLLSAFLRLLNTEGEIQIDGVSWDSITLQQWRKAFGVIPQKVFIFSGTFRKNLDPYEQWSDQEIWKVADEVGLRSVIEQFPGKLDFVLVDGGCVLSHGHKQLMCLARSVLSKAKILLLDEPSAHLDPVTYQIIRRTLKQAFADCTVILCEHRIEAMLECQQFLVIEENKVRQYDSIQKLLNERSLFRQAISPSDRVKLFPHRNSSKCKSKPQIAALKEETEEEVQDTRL

| pIC50 [1] | pIC50 [2] | CFTR inhibitory activity (in words) | pIC50 [3] | pIC50 [4] | SMILES |
| --- | --- | --- | --- | --- | --- |
| – | – | inactive | – | – | O=C(O)c1ccc(CC2SC(=S)N(c3cccc(C(F)(F)F)c3)C2=O)cc1 (stereo not shown) [Compound 56] |
| 4.70 to 5.00 | 4.70 to 5.00 | – | – | – | O=C(O)c1ccc(/C=C2\SC(=S)N(c3ccc(Cl)c(C(F)(F)F)c3)C2=O)cc1 [Compound 24, (Z)-4-((3-(4-chloro-3-(trifluoromethyl)phenyl)-4-oxo-2-thioxothiazolidin-5-ylidene)methyl)benzoic acid] |
| 4.52 to 4.70 | 4.52 to 4.70 | low activity | – | – | O=C1/C(=C/c2ccc(O)cc2)SC(=S)N1c1cccc(C(F)(F)F)c1 [Compound 31, (Z)-5-(4-hydroxybenzylidene)-2-thioxo-3-(3-(trifluoromethyl)phenyl) thiazolidin-4-one] |
| – | 4.70 to 5.00 | – | 4.70 to 5.00 | – | O=C1S/C(=C\c2ccc(-c3nn[nH]n3)cc2)C(=O)N1c1cccc(C(F)(F)F)c1 [Compound 48, (Z)-5-(4-(1H-tetrazol-5-yl)benzylidene)-3-(3-(trifluoromethyl)phenyl) thiazolidine-2,4-dione] |
| – | 4.52 to 4.70 | inactive | – | 4.52 to 4.70 | O=C1/C(=C/c2ccncc2)SC(=S)N1c1cccc(C(F)(F)F)c1 [Compound 33, (Z)-5-(pyridin-4-ylmethylene)-2-thioxo-3-(3-(trifluoromethyl)phenyl) thiazolidin-4-one] |
| 4.70 to 5.00 | 4.70 to 5.00 | – | – | – | O=C(O)c1cc(/C=C2\SC(=S)N(c3ccccc3C(F)(F)F)C2=O)ccc1O [Compound 22, (Z)-2-hydroxy-5-((4-oxo-2-thioxo-3-(2-(trifluoromethyl)phenyl)thiazolidin-5-ylidene)methyl)benzoic acid] |
| – | 5.00 to 5.30 | – | 5.00 to 5.30 | ~5.15 | O=C(O)c1ccc(SC2CC(=O)N(c3cccc(C(F)(F)F)c3)C2=O)cc1 (stereo not shown) [Compound 50, 4-(2,5-dioxo-1-(3-(trifluoromethyl)phenyl)pyrrolidin-3-ylthio)benzoic acid] |
| 4.70 to 5.00 | 4.70 to 5.00 | – | – | – | O=C(O)c1cccc(/C=C2\SC(=S)N(c3ccccc3C(F)(F)F)C2=O)c1 [Compound 28, (Z)-3-((4-oxo-2-thioxo-3-(2-(trifluoromethyl)phenyl)thiazolidin-5-ylidene)methyl)benzoic acid] |
| 4.70 to 5.00 | 4.70 to 5.00 | – | – | – | O=C(O)c1ccccc1/C=C1\SC(=S)N(c2ccc(C(F)(F)F)cc2)C1=O [Compound 29, (Z)-2-((4-oxo-2-thioxo-3-(4-(trifluoromethyl)phenyl)thiazolidin-5-ylidene)methyl)benzoic acid] |
| 4.52 to 4.70 | 4.52 to 4.70 | low activity | – | – | O=C1/C(=C/c2ccc(O)c(O)c2O)SC(=S)N1c1cccc(C(F)(F)F)c1 [Compound 34, (Z)-2-thioxo-3-(3-(trifluoromethyl)phenyl)-5-(2,3,4-trihydroxybenzylidene) thiazolidin-4-one] |
| 4.70 to 5.00 | 4.70 to 5.00 | – | – | – | O=C(O)c1ccc(/C=C2\SC(=S)N(c3cc(C(F)(F)F)cc(C(F)(F)F)c3)C2=O)cc1 [Compound 23, (Z)-4-((3-(3,5-bis(trifluoromethyl)phenyl)-4-oxo-2-thioxothiazolidin-5-ylidene)methyl)benzoic acid] |
| 4.70 to 5.00 | 4.70 to 5.00 | – | – | – | O=C(O)c1ccc(/C=C2\SC(=S)N(c3ccc(C(F)(F)F)cc3)C2=O)cc1 [Compound 25, (Z)-4-((4-oxo-2-thioxo-3-(4-(trifluoromethyl)phenyl)thiazolidin-5-ylidene)methyl)benzoic acid] |
| 4.52 to 4.70 | 4.52 to 4.70 | – | – | – | O=C(O)c1cc(/C=C2\SC(=S)N(c3ccc(C(F)(F)F)cc3)C2=O)ccc1O [Compound 32, (Z)-2-hydroxy-5-((4-oxo-2-thioxo-3-(4-(trifluoromethyl)phenyl)thiazolidin-5-ylidene)methyl)benzoic acid] |
| – | 5.00 to 5.30 | – | 5.00 to 5.30 | – | O=C(O)c1ccc(NC(=S)C2SC(=S)N(c3cccc(C(F)(F)F)c3)C2=O)cc1 (stereo not shown) [Compound 51, 4-(4-oxo-2-thioxo-3-(3-(trifluoromethyl)phenyl)thiazolidine-5-carbothioamido)benzoic acid] |
| 4.52 to 4.70 | 4.52 to 4.70 | – | – | – | O=C(O)COc1cccc(/C=C2\SC(=S)N(c3cccc(C(F)(F)F)c3)C2=O)c1 [Compound 36, (Z)-2-(3-((4-oxo-2-thioxo-3-(3-(trifluoromethyl)phenyl)thiazolidin-5-ylidene)methyl)phenoxy) acetic acid] |
| 4.70 to 5.00 | 4.70 to 5.00 | – | – | – | O=C(O)c1ccccc1/C=C1\SC(=S)N(c2cccc(C(F)(F)F)c2)C1=O [Compound 26, (Z)-2-((4-oxo-2-thioxo-3-(3-(trifluoromethyl)phenyl)thiazolidin-5-ylidene)methyl)benzoic acid] |
| 4.70 to 5.00 | 4.70 to 5.00 | – | – | – | O=C(O)c1ccccc1/C=C1\SC(=S)N(c2ccccc2C(F)(F)F)C1=O [Compound 27, (Z)-2-((4-oxo-2-thioxo-3-(2-(trifluoromethyl)phenyl)thiazolidin-5-ylidene)methyl)benzoic acid] |

Further lines, the compound ahead of its results:

| SMILES | pIC50 [1] | pIC50 [2] | CFTR inhibitory activity (in words) | pIC50 [3] | pIC50 [4] |
| --- | --- | --- | --- | --- | --- |
| Cc1cccc(N2C(=O)/C(=C/c3ccc(C(=O)O)cc3)SC2=S)c1C [Compound 13, (Z)-4-((3-(2,3-dimethylphenyl)-4-oxo-2-thioxothiazolidin-5-ylidene)methyl)benzoic acid] | 5.00 to 5.30 | 5.00 to 5.30 | – | – | – |
| O=C(O)c1cccc(/C=C2\SC(=S)N(c3ccc(C(F)(F)F)cc3)C2=O)c1 [Compound 21, (Z)-3-((4-oxo-2-thioxo-3-(4-(trifluoromethyl)phenyl)thiazolidin-5-ylidene)methyl)benzoic acid] | 4.70 to 5.00 | 4.70 to 5.00 | – | – | – |
| O=C(O)c1cccc(/C=C2\SC(=S)N(c3cccc(C(F)(F)F)c3)C2=O)c1 [Compound 9, (Z)-3-((4-oxo-2-thioxo-3-(3-(trifluoromethyl)phenyl)thiazolidin-5-ylidene)methyl)benzoic acid] | 5.70 to 6.00 | 5.70 to 6.00 | – | – | – |
| O=C1/C(=C/c2ccc(S(=O)(=O)[O-])cc2)SC(=S)N1c1cccc(C(F)(F)F)c1.[Na+] [Compound 35, sodium (Z)-4-((4-oxo-2-thioxo-3-(3-(trifluoromethyl)phenyl)thiazolidin-5-ylidene)methyl) benzenesulfonate] | 4.52 to 4.70 | 4.52 to 4.70 | inactive | – | – |
| O=C1/C(=C/c2cc(Br)c(O)c(Br)c2)SC(=S)N1c1cccc(C(F)(F)F)c1 [Compound 14, (Z)-5-(3,5-dibromo-4-hydroxybenzylidene)-2-thioxo-3-(3-(trifluoromethyl)phenyl) thiazolidin-4-one] | 5.00 to 5.30 | 5.00 to 5.30 | modest inhibition activity | – | – |
| O=C(O)c1cccc(/C=C2\SC(=S)N(c3ccc(F)c(C(F)(F)F)c3)C2=O)c1 [Compound 11, (Z)-3-((3-(4-fluoro-3-(trifluoromethyl)phenyl)-4-oxo-2-thioxothiazolidin-5-ylidene)methyl)benzoic acid] | 5.00 to 5.30 | 5.00 to 5.30 | – | – | – |
| O=C(O)c1cc(/C=C2\SC(=S)N(c3cccc(C(F)(F)F)c3)C2=O)ccc1O [Compound 7, (Z)-2-hydroxy-5-((4-oxo-2-thioxo-3-(3-(trifluoromethyl)phenyl)thiazolidin-5-ylidene)methyl)benzoic acid] | 5.70 to 6.00 | 5.70 to 6.00 | – | – | – |
| O=C1/C(=C/c2cc(O)c(O)c(O)c2)SC(=S)N1c1cccc(C(F)(F)F)c1 [Compound 19, (Z)-2-thioxo-3-(3-(trifluoromethyl)phenyl)-5-(3,4,5-trihydroxybenzylidene) thiazolidin-4-one] | 4.70 to 5.00 | 4.70 to 5.00 | low activity | – | – |
| O=C(O)c1ccc(/C=C2\SC(=S)N(c3ccccc3C(F)(F)F)C2=O)cc1 [Compound 20, (Z)-4-((4-oxo-2-thioxo-3-(2-(trifluoromethyl)phenyl)thiazolidin-5-ylidene)methyl)benzoic acid] | 4.70 to 5.00 | 4.70 to 5.00 | – | – | – |
| O=C(O)COc1ccc(/C=C2\SC(=S)N(c3cccc(C(F)(F)F)c3)C2=O)cc1 [Compound 10, (Z)-2-(4-((4-oxo-2-thioxo-3-(3-(trifluoromethyl)phenyl)thiazolidin-5-ylidene)methyl)phenoxy) acetic acid] | 5.52 to 5.70 | 5.52 to 5.70 | – | – | 5.59 |
| O=C(O)c1ccc(/C=C2\SC(=S)N(c3ccc(F)c(C(F)(F)F)c3)C2=O)cc1 [Compound 8, (Z)-4-((3-(4-fluoro-3-(trifluoromethyl)phenyl)-4-oxo-2-thioxothiazolidin-5 ylidene)methyl)benzoic acid] | 5.70 to 6.00 | 5.70 to 6.00 | – | – | – |
| O=C(O)c1ccc(/C=C2\SC(=S)N(c3cccc(C(F)(F)F)c3)C2=O)c(O)c1 [Compound 16, (Z)-3-hydroxy-4-((4-oxo-2-thioxo-3-(3-(trifluoromethyl)phenyl)thiazolidin-5-ylidene)methyl)benzoic acid] | 5.05 to 5.15 | 5.05 to 5.15 | – | – | – |
| Cc1cccc(N2C(=O)/C(=C/c3ccc(C(=O)O)cc3)SC2=S)c1 [Compound 12, (Z)-4-((4-oxo-2-thioxo-3-m-tolylthiazolidin-5-ylidene)methyl)benzoic acid] | 5.00 to 5.30 | 5.00 to 5.30 | – | – | – |
